Experimental data published in US5151442A, “Chroman derivative active on the central nervous system, their method of preparation and pharmaceutical compositions in which they are present” (Sanofi, priority 1988, dated 1992).
Counter-ions that a name gives are not always drawn.

Tested on: Female mice (Iffa Credo)
Assay: forced swimming test according to Porsolt et al. (immobility times over 4 minutes, 2nd to 6th minute)
Format: in vivo
Details: Mus musculus, ip, read-out: % inhibition (of the immobility times compared with control animals); for inhibition in vivo at 0.06 mg/kg: 0.06 mg/kg i.p.; for inhibition in vivo at 0.25 mg/kg: 0.25 mg/kg i.p.; for inhibition in vivo at 0.125 mg/kg: 0.125 mg/kg i.p.
Description: Thus the products according to the invention were subjected to the forced swimming test according to Porsolt et al. (Archives Internationales de Pharmacodynamie, 1977, 229, 327-336). Female mice (Iffa Credo) weighing 22-24 g are immersed for a period of 6 minutes in a beaker containing 800 ml of water at 24°±1° C. The immobility times are measured over 4 minutes from the 2nd to the 6th minute. The results are expressed as the percentage inhibition of the immobility times of the treated animals compared with the control animals.

SMILES	inhibition in vivo at 0.06 mg/kg	inhibition in vivo at 0.25 mg/kg	inhibition in vivo at 0.125 mg/kg	inhibition in vivo at 1 mg/kg (1 mg/kg i.p.)
CC1(C)Oc2ccc(C#N)cc2[C@@H](Nc2ccc(Cl)cc2)[C@@H]1O (relative stereo) [SR 44546, Trans-4-(4-chloroanilino)-6-cyano-2,2-dimethyl-3-hydroxychroman]	16%	44%	–	–
COC(=O)c1ccccc1N[C@@H]1c2cc(C#N)ccc2OC(C)(C)[C@H]1O (relative stereo) [SR 44588, Trans-6-cyano-2,2-dimethyl-3-hydroxy-4-(2-methoxycarbonylanilino)chroman]	20%	–	27%	–
CN(C)CCS[C@@H]1c2cc(C#N)ccc2OC(C)(C)[C@H]1O (relative stereo) [SR 44652, Trans-6-cyano-2,2-dimethyl-4-(2-dimethylaminoethylthio)-3-hydroxychroman hydrochloride]	25%	–	27%	–
CC1(C)Oc2ccc(C#N)cc2[C@@H](NS(=O)(=O)c2ccccc2C(F)(F)F)[C@@H]1O (relative stereo) [SR 44665, Trans-6-cyano-2,2-dimethyl-3-hydroxy-4-(2-trifluoromethylbenzene-1-sulfonamido)chroman]	24%	–	–	–
CN(C)S(=O)(=O)N[C@@H]1c2cc(C#N)ccc2OC(C)(C)[C@H]1O (relative stereo) [SR 44666, Trans-6-cyano-2,2-dimethyl-4-(N,N-dimethylsulfamoylamino)-3-hydroxychroman]	21%	–	–	23%
CC1(C)Oc2ccc(C#N)cc2[C@@H](S(=O)(=O)C2CCCCC2)[C@@H]1O (relative stereo) [SR 44708, Trans-6-cyano-4-cyclohexylsulfonyl-2,2-dimethyl-3-hydroxychroman]	21%	37%	–	–
CC1(C)Oc2ccc(C#N)cc2[C@@H](Nc2ccccc2)[C@@H]1O (relative stereo) [SR 46142 A]	40%	–	–	–
CC1(C)Oc2ccc(C#N)cc2[C@@H](Nc2ccc(F)cc2)[C@@H]1O (relative stereo) [SR 46143]	27%	–	–	–
CC1(C)Oc2ccc(C#N)cc2[C@@H](Nc2ccc(C(F)(F)F)cc2)[C@@H]1O (relative stereo) [SR 46276]	40%	–	–	–
CC1(C)C=C(Sc2ccc(Cl)cc2)c2cc(C#N)ccc2O1 [SR 44554, 4-(4-Chlorophenylthio)-6-cyano-2,2-dimethyl-2H-chromene]	33%	–	–	–
